Assay results taken from patent publication US20250098679A1, “HERBICIDAL PYRIDONE DERIVATIVES” (SYNGENTA CROP PROTECTION AG, priority 2021, published 2025).

What was measured:
Assay type in all cases: in vivo
[1] = tested on: Echinochloa crus-galli (ECHCG); assay: Post-emergence Test, Echinochloa crus-galli (ECHCG); parameters: key to percentage damage caused to the plant, ECHCG (five-point scale): 5=81-100%, 4=61-80%, 3=41-60%, 2=21-40%, 1=0-20% damage; settings: evaluated after 13 days
Procedure, shortened: (§1)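 Spray application at 1000 g/ha unless otherwise stated. Damage was scored 13 days later as 1 (0-20%) to 5 (81-100%).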

Zea mays (ZEAMX) [2] = assay: Pre-emergence Test, Zea mays (ZEAMX); settings: 1000 g/ha, evaluated after 13 days
[3] = tested on: Amaranthus retoflexus (AMARE); assay: Post-emergence Test, Amaranthus retoflexus (AMARE); parameters: key to percentage damage caused to the plant, AMARE (five-point scale): 5=81-100%, 4=61-80%, 3=41-60%, 2=21-40%, 1=0-20% damage; settings: evaluated after 13 days
Procedure, shortened: as §1

[4] = tested on: Amaranthus retoflexus (AMARE); assay: Pre-emergence Test, Amaranthus retoflexus (AMARE); settings: 1000 g/ha, evaluated after 13 days
Setaria faberi (SETFA) [5] = assay: Post-emergence Test, Setaria faberi (SETFA); parameters: key to percentage damage caused to the plant, SETFA (five-point scale): 5=81-100%, 4=61-80%, 3=41-60%, 2=21-40%, 1=0-20% damage; settings: evaluated after 13 days
Procedure, shortened: as §1

[6] = tested on: Amaranthus palmeri (AMAPA); assay: Post-emergence Test, Amaranthus palmeri (AMAPA); parameters: key: 5=81-100%, 4=61-80%, 3=41-60%, 2=21-40%, 1=0-20% damage; settings: evaluated after 13 days
Procedure, shortened: as §1

[7] = tested on: Ipomoea hederacea (IPOHE); assay: Post-emergence Test, Ipomoea hederacea (IPOHE); parameters: key to percentage damage caused to the plant, IPOHE (five-point scale): 5=81-100%, 4=61-80%, 3=41-60%, 2=21-40%, 1=0-20% damage; settings: evaluated after 13 days
Procedure, shortened: as §1

[8] = tested on: Amaranthus palmeri (AMAPA); assay: Pre-emergence Test, Amaranthus palmeri (AMAPA); settings: 1000 g/ha, evaluated after 13 days
[9] = tested on: Echinochloa crus-galli (ECHCG); assay: Pre-emergence Test, Echinochloa crus-galli (ECHCG); settings: 1000 g/ha, evaluated after 13 days
[10] = tested on: Ipomoea hederacea (IPOHE); assay: Pre-emergence Test, Ipomoea hederacea (IPOHE); settings: 1000 g/ha, evaluated after 13 days
Zea mays (ZEAMX) [11] = assay: Post-emergence Test, Zea mays (ZEAMX); parameters: key to percentage damage caused to the plant, ZEAMX (five-point scale): 5=81-100%, 4=61-80%, 3=41-60%, 2=21-40%, 1=0-20% damage; settings: evaluated after 13 days
Procedure, shortened: as §1

Setaria faberi (SETFA) [12] = assay: Pre-emergence Test, Setaria faberi (SETFA); settings: 1000 g/ha, evaluated after 13 days

Row | Compound | percentage damage caused to the plant, ECHCG (five-point scale) ([1]; 1000 g/ha) | Pre-emergence Test ZEAMX, percentage damage caused to the plant (five-point scale) (Zea mays (ZEAMX) [2]) | percentage damage caused to the plant, AMARE (five-point scale) ([3]; 1000 g/ha) | Pre-emergence Test AMARE, percentage damage caused to the plant (five-point scale) [4] | percentage damage caused to the plant, SETFA (five-point scale) (Setaria faberi (SETFA) [5]; 1000 g/ha) | percentage damage caused to the plant, AMAPA (five-point scale) ([6]; 1000 g/ha) | percentage damage caused to the plant, IPOHE (five-point scale) ([7]; 1000 g/ha) | Pre-emergence Test AMAPA, percentage damage caused to the plant (five-point scale) [8] | Pre-emergence Test ECHCG, percentage damage caused to the plant (five-point scale) [9] | Pre-emergence Test IPOHE, percentage damage caused to the plant (five-point scale) [10] | percentage damage caused to the plant, ZEAMX (five-point scale) (Zea mays (ZEAMX) [11]; 1000 g/ha) | Pre-emergence Test SETFA, percentage damage caused to the plant (five-point scale) (Setaria faberi (SETFA) [12]) | percentage damage caused to the plant, ECHCG (five-point scale) ([1]; 250 g/Ha) | percentage damage caused to the plant, AMARE (five-point scale) ([3]; 250 g/Ha) | percentage damage caused to the plant, SETFA (five-point scale) (Setaria faberi (SETFA) [5]; 250 g/Ha) | percentage damage caused to the plant, AMAPA (five-point scale) ([6]; 250 g/Ha) | percentage damage caused to the plant, IPOHE (five-point scale) ([7]; 250 g/Ha) | percentage damage caused to the plant, ZEAMX (five-point scale) (Zea mays (ZEAMX) [11]; 250 g/Ha)
1 | CCOC(=O)c1cc(C(=O)OCC)n(Cc2cc(=O)c(C(=O)O)c(-c3ccc(Cl)c(Cl)c3)n2CC)n1 [Compound 112, 6-[[3,5-bis(ethoxycarbonyl)pyrazol-1-yl]methyl]-2-(3,4-dichlorophenyl)-1-ethyl-4-oxo-pyridine-3-carboxylic acid] | 2 (2=21-40%) | 0 | 1 (1=0-20%) | 1 (1=0-20%) | 1 (1=0-20%) | 1 (1=0-20%) | 2 (2=21-40%) | 1 (1=0-20%) | 0 | 0 | 0 | 0 |  |  |  |  |  | 
2 | CCn1c(Cn2nc(C(F)(F)F)nc2C)cc(=O)c(C(=O)O)c1-c1ccc(Cl)c(Cl)c1 [Compound 108, 2-(3,4-dichlorophenyl)-1-ethyl-6-[[5-methyl-3-(trifluoromethyl)-1,2,4-triazol-1-yl]methyl]-4-oxo-pyridine-3-carboxylic acid] | 2 (2=21-40%) | 0 | 0 | 0 | 2 (2=21-40%) | 0 | 0 | 0 | 0 | 0 | 1 (1=0-20%) | 0 | 1 (1=0-20%) | 0 | 1 (1=0-20%) | 0 | 0 | 0
3 | CCn1c(Cn2ccc(SC)n2)cc(=O)c(C(=O)O)c1-c1ccc(Cl)c(Cl)c1 [Compound 35, 2-(3,4-dichlorophenyl)-1-ethyl-6-[(3-methylsulfanylpyrazol-1-yl)methyl]-4-oxo-pyridine-3-carboxylic acid] | 4 (4=61-80%) | 5 (5=81-100%) | 3 (3=41-60%) | 1 (1=0-20%) | 4 (4=61-80%) | 1 (1=0-20%) | 2 (2=21-40%) | 2 (2=21-40%) | 5 (5=81-100%) | 4 (4=61-80%) | 3 (3=41-60%) | 4 (4=61-80%) | 3 (3=41-60%) |  | 4 (4=61-80%) | 1 (1=0-20%) | 4 (4=61-80%) | 2 (2=21-40%)
